Results from BindingDB's records for doi:10.1021/jm800739m (University of Southern California, 2009).

Target: DNA-(apurinic or apyrimidinic site) endonuclease (Homo sapiens, UniProt P27695)
Assay: APE1 Inhibition Assay
Settings: pH 7.5; 30 °C
Protocol: To determine the extent of abasic residue cleavage by APE1, recombinant APE1 was preincubated with the potential inhibitors in reaction buffer. Then, the 5-end 32P-labeled oligonucleotide substrate was added. The conversion of incision product was quantitated using PhosphorImager / ImageQuant 5.2 system. The IC50 values were determined by plotting the logarithm of drug concentration against percent inhibition of enzymatic activity. The optimum concentration of APE1 protein in the assay is the concentration at which there is complete conversion of the abasic-site containing oligonucleotide substrate to its cleaved product without subsequent exonuclease activity.

Chain of DNA-(apurinic or apyrimidinic site) endonuclease (P27695 whole entry): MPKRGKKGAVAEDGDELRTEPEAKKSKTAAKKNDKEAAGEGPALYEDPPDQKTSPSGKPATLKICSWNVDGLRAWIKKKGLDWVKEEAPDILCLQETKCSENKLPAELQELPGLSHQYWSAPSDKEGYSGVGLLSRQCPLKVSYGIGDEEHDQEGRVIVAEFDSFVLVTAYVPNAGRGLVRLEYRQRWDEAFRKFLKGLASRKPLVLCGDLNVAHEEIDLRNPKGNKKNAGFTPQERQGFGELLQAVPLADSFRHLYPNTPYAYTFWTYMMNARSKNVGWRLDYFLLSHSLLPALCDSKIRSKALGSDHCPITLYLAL

IC50: 4 µM
SMILES: O=C(O)c1ccc(Sc2ccc(S(=O)(=O)c3ccc(C(=O)O)c(C(=O)O)c3)cc2)cc1 [4-({4-[(4-carboxyphenyl)sulfanyl]benzene}sulfonyl)benzene-1,2-dicarboxylic acid]
